Assay results as given in US12139492B2 (Endotarget Inc., priority 2021, dated 2024).

Key:
Format in all cases: cell-based
Mino cells = experiment: Antiproliferative effect, MTS cell viability assay, Mino cells; conditions: Homo sapiens, MINO, Mino mantle cell lymphoma cells; read-out: IC50 (anti-proliferation) Mino cells
Procedure, shortened: (§1)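 MTS read-out, A490 of formazan from metabolically active cells; compound 0–10 μM (0, 0.001, 0.01, 0.1, 1, 10 μM), 72 h exposure.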

JeKo-1 cells = experiment: Antiproliferative effect, MTS cell viability assay, JeKo-1 cells; conditions: Homo sapiens; JeKo-1 mantle cell lymphoma cells; read-out: IC50 (anti-proliferation) JeKO-1 cells
Procedure, shortened: as §1

BTK = BTK (Homo sapiens, UniProt Q06187); experiment: BTK degradation, DC50 and Dmax of Table 1 (cell line not given); set-up: endogenous in cells; conditions: for DC50: concentration giving 50% reduction of BTK expression level
Sequence of BTK (Q06187 whole entry): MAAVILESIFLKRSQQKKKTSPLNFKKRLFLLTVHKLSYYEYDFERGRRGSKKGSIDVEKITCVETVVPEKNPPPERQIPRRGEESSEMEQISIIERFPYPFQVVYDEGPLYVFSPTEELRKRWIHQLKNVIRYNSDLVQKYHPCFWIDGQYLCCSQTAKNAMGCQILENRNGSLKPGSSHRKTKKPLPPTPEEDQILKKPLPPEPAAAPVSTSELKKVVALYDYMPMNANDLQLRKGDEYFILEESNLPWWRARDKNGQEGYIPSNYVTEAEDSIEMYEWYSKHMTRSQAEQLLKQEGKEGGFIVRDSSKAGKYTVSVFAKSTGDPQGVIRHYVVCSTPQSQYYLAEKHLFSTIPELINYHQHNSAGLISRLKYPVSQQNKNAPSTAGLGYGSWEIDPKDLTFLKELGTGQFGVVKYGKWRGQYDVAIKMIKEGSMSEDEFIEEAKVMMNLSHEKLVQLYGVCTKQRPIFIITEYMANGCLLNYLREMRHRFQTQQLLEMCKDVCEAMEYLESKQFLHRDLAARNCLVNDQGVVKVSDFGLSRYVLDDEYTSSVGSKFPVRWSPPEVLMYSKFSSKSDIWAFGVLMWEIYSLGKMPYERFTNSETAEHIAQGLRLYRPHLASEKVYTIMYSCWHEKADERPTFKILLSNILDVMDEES

SMILES | IC50 (Mino cells) [µM] | IC50 (JeKo-1 cells) [µM] | Dmax (BTK) [%] | DC50 (BTK) [µM]
Nc1ncnc2c1c(-c1ccc(Oc3ccccc3)cc1)nn2C1CCN(C(=O)N2CCC(CC3CCN(c4ccc5c(c4)C(=O)N(C4CCC(=O)NC4=O)C5=O)CC3)CC2)CC1 (centres unmarked) [Compound 89, 5-(4-((1-(4-(4-amino-3-(4-phenoxyphenyl)-1H-pyrazolo[3,4-d]pyrimidin-1-yl)piperidine-1-carbonyl)piperidin-4-yl)methyl)piperidin-1-yl)-2-(2,6-dioxopiperidin-3-yl)isoindoline-1,3-dione] | < 1 | 1 to 10 | > 90 | 0.01 to 0.05
Nc1ncnc2c1c(-c1ccc(Oc3ccccc3)cc1)nn2[C@@H]1CCCN(C(=O)N2CCN(CCCN3CCN(c4ccc5c(c4)C(=O)N(C4CCC(=O)NC4=O)C5=O)CC3)CC2)C1 (stereo partly drawn) [Compound 107, 5-(4-(3-(4-((R)-3-(4-amino-3-(4-phenoxyphenyl)-1H-pyrazolo[3,4-d]pyrimidin-1-yl)piperidine-1-carbonyl)piperazin-1-yl)propyl)piperazin-1-yl)-2-(2,6-dioxopiperidin-3-yl)isoindoline-1,3-dione] | 1 to 10 | > 10 | > 75 | > 0.05
Nc1ncnc2c1c(-c1ccc(Oc3ccccc3)cc1)nn2[C@@H]1CCCN(CC2CCN(CCC3CCN(c4ccc5c(c4)CN(C4CCC(=O)NC4=O)C5=O)CC3)CC2)C1 (stereo partly drawn) [Compound 132, 3-(5-(4-(2-(4-(((R)-3-(4-amino-3-(4-phenoxyphenyl)-1H-pyrazolo[3,4-d]pyrimidin-1-yl)piperidin-1-yl)methyl)piperidin-1-yl)ethyl)piperidin-1-yl)-1-oxoisoindolin-2-yl)piperidine-2,6-dione] | 1 to 10 | 1 to 10 | > 90 | 0.01 to 0.05
Nc1ncnc2c1c(-c1ccc(Oc3ccccc3)cc1)nn2C1CCCN(CCOCCOCCN2CCN(c3ccc4c(c3)CN(C3CCC(=O)NC3=O)C4=O)CC2)C1 (centres unmarked) [Compound 4, 3-(5-(4-(2-(2-(2-(3-(4-amino-3-(4-phenoxyphenyl)-1H-pyrazolo[3,4-d]pyrimidin-1-yl)piperidin-1-yl)ethoxy)ethoxy)ethyl)piperazin-1-yl)-1-oxoisoindolin-2-yl)piperidine-2,6-dione] | 1 to 10 | 1 to 10 | > 90 | < 0.01
Nc1ncnc2c1c(-c1ccc(Oc3ccccc3)cc1)nn2C1CCN(C(=O)N2CCC(CCN3CCC(c4ccc5c(c4)C(=O)N(C4CCC(=O)NC4=O)C5=O)CC3)CC2)CC1 (centres unmarked) [Compound 103, 5-(1-(2-(1-(4-(4-amino-3-(4-phenoxyphenyl)-1H-pyrazolo[3,4-d]pyrimidin-1-yl)piperidine-1-carbonyl)piperidin-4-yl)ethyl)piperidin-4-yl)-2-(2,6-dioxopiperidin-3-yl)isoindoline-1,3-dione] | > 10 | 1 to 10 | > 90 | 0.01 to 0.05
Nc1ncnc2c1c(-c1ccc(Oc3ccccc3)cc1)nn2[C@@H]1CCCN(C2CCN(C(=O)N3CCC(CCN4CCC(c5ccc6c(c5)C(=O)N(C5CCC(=O)NC5=O)C6=O)CC4)CC3)CC2)C1 (stereo partly drawn) [Compound 183, 5-(1-(2-(1-((R)-3-(4-amino-3-(4-phenoxyphenyl)-1H-pyrazolo[3,4-d]pyrimidin-1-yl)-[1,4′-bipiperidine]-1′-carbonyl)piperidin-4-yl)ethyl)piperidin-4-yl)-2-(2,6-dioxopiperidin-3-yl)isoindoline-1,3-dione] | 1 to 10 | > 10 | > 75 | 0.01 to 0.05
Nc1ncnc2c1c(-c1ccc(Oc3ccccc3)cc1)nn2C1CCN(C(=O)N2CCC(CCN3CCC(c4ccc5c(c4)CN(C4CCC(=O)NC4=O)C5=O)CC3)CC2)CC1 (centres unmarked) [Compound 104, 3-(5-(1-(2-(1-(4-(4-amino-3-(4-phenoxyphenyl)-1H-pyrazolo[3,4-d]pyrimidin-1-yl)piperidine-1-carbonyl)piperidin-4-yl)ethyl)piperidin-4-yl)-1-oxoisoindolin-2-yl)piperidine-2,6-dione] | 1 to 10 | 1 to 10 | > 90 | 0.01 to 0.05
Nc1ncnc2c1c(-c1ccc(Oc3ccccc3)cc1)nn2C1CCN(C(=O)N2CCN(CCN3CCN(c4ccc5c(c4)C(=O)N(C4CCC(=O)NC4=O)C5=O)CC3)CC2)CC1 (centres unmarked) [Compound 95, 5-(4-(2-(4-(4-(4-amino-3-(4-phenoxyphenyl)-1H-pyrazolo[3,4-d]pyrimidin-1-yl)piperidine-1-carbonyl)piperazin-1-yl)ethyl)piperazin-1-yl)-2-(2,6-dioxopiperidin-3-yl)isoindoline-1,3-dione] | 1 to 10 | < 1 | > 90 | 0.01 to 0.05
Nc1ncnc2c1c(-c1ccc(Oc3ccccc3)cc1)nn2[C@@H]1CCCN(C(=O)N2CCC(CN3CCC(c4ccc5c(c4)CN(C4CCC(=O)NC4=O)C5=O)CC3)CC2)C1 (stereo partly drawn) [Compound 62, 3-(5-(1-((1-((R)-3-(4-amino-3-(4-phenoxyphenyl)-1H-pyrazolo[3,4-d]pyrimidin-1-yl)piperidine-1-carbonyl)piperidin-4-yl)methyl)piperidin-4-yl)-1-oxoisoindolin-2-yl)piperidine-2,6-dione] | < 1 | < 1 | > 90 | 0.01 to 0.05
Nc1ncnc2c1c(-c1ccc(Oc3ccccc3)cc1)nn2[C@@H]1CCCN(C2CCN(C(=O)N3CCN(CC4CCN(c5ccc6c(c5)C(=O)N(C5CCC(=O)NC5=O)C6=O)CC4)CC3)CC2)C1 (stereo partly drawn) [Compound 171, 5-(4-((4-((R)-3-(4-amino-3-(4-phenoxyphenyl)-1H-pyrazolo[3,4-d]pyrimidin-1-yl)-[1,4′-bipiperidine]-1′-carbonyl)piperazin-1-yl)methyl)piperidin-1-yl)-2-(2,6-dioxopiperidin-3-yl)isoindoline-1,3-dione] | 1 to 10 | 1 to 10 | > 90 | 0.01 to 0.05
Nc1ncnc2c1c(-c1ccc(Oc3ccccc3)cc1)nn2[C@@H]1CCCN(C(=O)N2CCN(CC3CCN(c4ccc5c(c4)C(=O)N(C4CCC(=O)NC4=O)C5=O)CC3)CC2)C1 (stereo partly drawn) [Compound 57, 5-(4-((4-((R)-3-(4-amino-3-(4-phenoxyphenyl)-1H-pyrazolo[3,4-d]pyrimidin-1-yl)piperidine-1-carbonyl)piperazin-1-yl)methyl)piperidin-1-yl)-2-(2,6-dioxopiperidin-3-yl)isoindoline-1,3-dione] | 1 to 10 | 1 to 10 | > 90 | 0.01 to 0.05
Nc1ncnc2c1c(-c1ccc(Oc3ccccc3)cc1)nn2[C@@H]1CCCN(C(=O)N2CCC(N3CCC(c4ccc5c(c4)CN(C4CCC(=O)NC4=O)C5=O)CC3)CC2)C1 (stereo partly drawn) [Compound 54, 3-(5-(1′-((R)-3-(4-amino-3-(4-phenoxyphenyl)-1H-pyrazolo[3,4-d]pyrimidin-1-yl)piperidine-1-carbonyl)-[1,4′-bipiperidin]-4-yl)-1-oxoisoindolin-2-yl)piperidine-2,6-dione] | < 1 | < 1 | > 90 | < 0.01
Nc1ncnc2c1c(-c1ccc(Oc3ccccc3)cc1)nn2C1CCN(C(=O)N2CCN(CCCN3CCC(c4ccc5c(c4)CN(C4CCC(=O)NC4=O)C5=O)CC3)CC2)CC1 (centres unmarked) [Compound 124, 3-(5-(1-(3-(4-(4-(4-amino-3-(4-phenoxyphenyl)-1H-pyrazolo[3,4-d]pyrimidin-1-yl)piperidine-1-carbonyl)piperazin-1-yl)propyl)piperidin-4-yl)-1-oxoisoindolin-2-yl)piperidine-2,6-dione] | > 10 | > 10 | > 90 | > 0.05
Nc1ncnc2c1c(-c1ccc(Oc3ccccc3)cc1)nn2[C@@H]1CCCN(C(=O)N2CCC(CCCN3CCC(c4ccc5c(c4)CN(C4CCC(=O)NC4=O)C5=O)CC3)CC2)C1 (stereo partly drawn) [Compound 116, 3-(5-(1-(3-(1-((R)-3-(4-amino-3-(4-phenoxyphenyl)-1H-pyrazolo[3,4-d]pyrimidin-1-yl)piperidine-1-carbonyl)piperidin-4-yl)propyl)piperidin-4-yl)-1-oxoisoindolin-2-yl)piperidine-2,6-dione] | > 10 | > 10 | > 75 | > 0.05
Nc1ncnc2c1c(-c1ccc(Oc3ccccc3)cc1)nn2C1CCN(CCOCCOCCN2CCC(c3ccc4c(c3)C(=O)N(C3CCC(=O)NC3=O)C4=O)CC2)CC1 (centres unmarked) [Compound 9, 5-(1-(2-(2-(2-(4-(4-amino-3-(4-phenoxyphenyl)-1H-pyrazolo[3,4-d]pyrimidin-1-yl)piperidin-1-yl)ethoxy)ethoxy)ethyl)piperidin-4-yl)-2-(2,6-dioxopiperidin-3-yl)isoindoline-1,3-dione] | 1 to 10 | 1 to 10 | > 90 | < 0.01
Nc1ncnc2c1c(-c1ccc(Oc3ccccc3)cc1)nn2[C@@H]1CCCN(C2CCN(C(=O)N3CCN(CCC4CCN(c5ccc6c(c5)CN(C5CCC(=O)NC5=O)C6=O)CC4)CC3)CC2)C1 (stereo partly drawn) [Compound 178, 3-(5-(4-(2-(4-((R)-3-(4-amino-3-(4-phenoxyphenyl)-1H-pyrazolo[3,4-d]pyrimidin-1-yl)-[1,4′-bipiperidine]-1′-carbonyl)piperazin-1-yl)ethyl)piperidin-1-yl)-1-oxoisoindolin-2-yl)piperidine-2,6-dione] | > 10 | > 10 | > 75 | > 0.05
Nc1ncnc2c1c(-c1ccc(Oc3ccccc3)cc1)nn2[C@@H]1CCCN(C2CCN(CCCC3CCN(c4ccc5c(c4)C(=O)N(C4CCC(=O)NC4=O)C5=O)CC3)CC2)C1 (stereo partly drawn) [Compound 155, 5-(4-(3-((R)-3-(4-amino-3-(4-phenoxyphenyl)-1H-pyrazolo[3,4-d]pyrimidin-1-yl)-[1,4′-bipiperidin]-1′-yl)propyl)piperidin-1-yl)-2-(2,6-dioxopiperidin-3-yl)isoindoline-1,3-dione] | > 10 | > 10 | > 50 | > 0.05
